Data reported in US20070191262A1, “Cancer Therapy and Prevention Based on Modulation of Complement activity” (University of Iowa Research Foundation, priority 2005, published 2007).
Where two headings read alike, the source gives them in different places.

Columns and labels:
[1] = multiphasic clearance from plasma; cited from earlier work
[2] = test system: follicular lymphoma; test: Single agent rituximab therapy of follicular lymphoma, outcome by C1qA[276], CD32 and CD16 polymorphism; assay type: in vivo, human
Experimental: A polymorphism in the C1qA component of complement correlates with prolonged complete remission following rituximab therapy of follicular lymphoma. The non-coding polymorphism at C1qA[276] was examined in 90 patients with follicular lymphoma who were treated with rituximab (single agent) to assess whether a correlation exists between this genetic polymorphism of the complement pathway and clinical effectiveness of rituximab. The presence of an A versus a G allele at the C1qA[276] locus was determined using restriction fragment length polymorphism analysis by investigators blinded to the clinical outcome of the patients. The molecular and clinical data was then analyzed according to C1qA polymorphism, including measurement of radiographic response and duration of response, using methods similar to those used to evaluate the correlation between polymorphisms in CD16/CD32 genes and clinical outcome.
However, prolonged remission was noted among those subjects that achieved remission (either partial or complete response) for individuals who were carriers of the A allele at the C1qA[276] locus (AA or AG) compared to homozygous GG subjects. The strongest correlation was found among those subjects that achieved a complete remission to single agent rituximab. […] A allele was an independent factor for good prognosis, while FcγRIIIa 158 phenylalanine carrier and FcγRIIa 131 arginine carrier indicated poor survival. Thus, the relative risk was 0.2 for C1qA[276] AA/AG versus GG after controlling for CD32 and CD16 polymorphisms. The relative risks were 4.8 for CD32 HR versus HH and 6.16 for CD32 RR versus HH after controlling for complement and CD16 polymorphisms. The relative risks were 4.57 for CD16 VF against VV and 3.69 for CD16 FF versus VV after controlling for complement and CD32 polymorphisms.

[3] = test system: Raji cells; test: Complement-mediated killing of Raji cells in the presence of rituximab and serum from genotyped donors; assay type: cell-based, human
Experimental: FIG. 1—Percentage of live Raji cells after 72 hours incubation in the presence of rituximab and serum from donors with known C1qA[276] genotype.
(§1) C1qA polymorphism correlates with the ability of complement to opsonize and kill target cells in the presence of therapeutic antibodies. The inventors collected and coded serum samples from 10 healthy donors previously genotyped for C1qA[276A/G] polymorphism. The sera were extensively analyzed for function of complement and ability to opsonize target cells by members of an outside collaborative research group blinded to the identity of the donors and the C1q genotype. The results from killing experiments are presented in summary in FIG. 1. The experiments were designed to determine the ability of the complement from human sera to lyse and thus limit the proliferation of Raji cells, a CD20 expressing B-cell lymphoma cell line, in the presence of rituximab, an anti-CD20 monoclonal with extensive application in clinical therapy of lymphoma. […] The inventors are currently in the process of collecting additional sera for testing. In a one-way ANOVA, p value is 0.086 at this point. Assuming future results will go with the trend observed, the ANOVA test will be in the 0.002 range if only 2 homozygous of each kind are added, and excluding the heterozygous. A better test for this type of data would be Dunn's multiple comparison test. […]

[4] = test system: C3b deposition on B-cell surface; test: C3b opsonization of target cells in the presence of rituximab and donor serum (flow cytometry); assay type: cell-based, human; conditions: serum from homozygous A donors
Description: FIG. 2—Level of C3b opsonization of B-cell surface in the presence of rituximab and serum from individuals with known C1qA[276] genotype.
as §1

[5] = patients with creatinine clearance >35 mL per minute; cited from earlier work
[6] = cited from earlier work

Molecule: CC[C@]1(O)C[C@H]2CN(CCc3c([nH]c4ccccc34)[C@@](C(=O)OC)(c3cc4c(cc3OC)N(C=O)[C@H]3[C@@](O)(C(=O)OC)[C@H](OC(C)=O)[C@]5(CC)C=CCN6CC[C@]43[C@@H]65)C2)C1 [Vincristine]
- terminal half-life [1]: about 24 hr

Molecule: Rituximab: monoclonal antibody that targets CD20, which is found on more than 90% of non-Hodgkin's lymphomas
- difference in response rate based on C1qA polymorphisms ([2]; 90 follicular lymphoma patients, single agent): No statistically significant difference
- time to progression ([2]; C1qA[276] AA/AG subjects who achieved complete remission): 830 days
- relative risk ([2]; C1qA[276] AA/AG versus GG, controlling for CD32 and CD16 polymorphisms): 0.2
- time to progression ([2]; C1qA[276] GG subjects who achieved complete remission): 250 days
- relative risk ([2]; CD16 FF versus VV, controlling for complement and CD32 polymorphisms): 3.69
- relative risk ([2]; CD16 VF against VV, controlling for complement and CD32 polymorphisms): 4.57
- relative risk ([2]; CD32 HR versus HH, controlling for complement and CD16 polymorphisms): 4.8
- relative risk ([2]; CD32 RR versus HH, controlling for complement and CD16 polymorphisms): 6.16
- HR (time to progression) ([2]; GG versus AA/AG, complete remission group, 95% CI=2.1-96.9): 4.1
- average lysis of Raji cells ([3]; heterozygous sera): moderate efficiency
- ability of serum complement to lyse Raji cells ([3]; serum of homozygous C1qA[276A] donors versus homozygous G, 72 hours, p<0.04): significant decrease
- deposition of C3b molecules on the surface of target cells [4]: least efficient

Molecule: Bleomycin
- serum or plasma terminal elimination half-life [5]: approximately 115 min
- tissue concentration ([6]; hematopoietic tissue / bone marrow): low concentrations
- tissue concentration ([6]; mice, skin, lungs, kidneys, peritoneum, lymphatics): high concentrations
